Source: the NIST ThermoML archive (doi:10.1016/j.jct.2006.03.018)
± gives the expanded uncertainty stated by the source.

Legend:
[1] = refractive index (Na D-line) (dimensionless); xn = mol fraction of the nth substance listed; details: 101 kPa, Liquid
[2] = xn = mol fraction of the nth substance listed; details: 101 kPa, Liquid
[3] = refractive index (Na D-line) (dimensionless); details: 101.33 kPa, Liquid
[4] = 101 kPa, Liquid

COc1ccccc1 [anisole] + CCO
Details	mass density, 298.15 K [kg/m3]	mass density, 303.15 K [kg/m3]	mass density, 308.15 K [kg/m3]	refractive index, 298.15 K	refractive index, 303.15 K	refractive index, 308.15 K	speed of sound, 298.15 K [m/s]	viscosity, 298.15 K [mPa·s]	viscosity, 303.15 K [mPa·s]	viscosity, 308.15 K [mPa·s]
[1], x1 = 0.0998	–	–	–	1.3856 ± 0.005	1.3838 ± 0.005	1.3814 ± 0.005	–	–	–	–
[1], x1 = 0.1985	–	–	–	1.4085 ± 0.005	1.4066 ± 0.005	1.4039 ± 0.005	–	–	–	–
[1], x1 = 0.2976	–	–	–	1.4284 ± 0.005	1.4261 ± 0.005	1.4241 ± 0.005	–	–	–	–
[1], x1 = 0.3973	–	–	–	1.4459 ± 0.005	1.4428 ± 0.005	1.4402 ± 0.005	–	–	–	–
[1], x1 = 0.5008	–	–	–	1.461 ± 0.005	1.4586 ± 0.005	1.4567 ± 0.005	–	–	–	–
[1], x1 = 0.5968	–	–	–	1.4737 ± 0.005	1.4711 ± 0.005	1.4695 ± 0.005	–	–	–	–
[1], x1 = 0.7015	–	–	–	1.4864 ± 0.005	1.4842 ± 0.005	1.4816 ± 0.005	–	–	–	–
[1], x1 = 0.7935	–	–	–	1.4955 ± 0.005	1.4934 ± 0.005	1.4907 ± 0.005	–	–	–	–
[1], x1 = 0.9014	–	–	–	1.5046 ± 0.005	1.5031 ± 0.005	1.5008 ± 0.005	–	–	–	–
[1], x1 = 1	–	–	–	1.5137 ± 0.005	1.5113 ± 0.005	1.5088 ± 0.005	–	–	–	–
[2], x1 = 0.0998	822.6 ± 3.2	818.11 ± 3.3	813.62 ± 3.3	–	–	–	1178 ± 83	0.995 ± 0.13	0.908 ± 0.12	0.831 ± 0.11
[2], x1 = 0.1985	852.71 ± 2.9	848.12 ± 2.9	843.52 ± 3	–	–	–	1226 ± 86	0.934 ± 0.12	0.851 ± 0.11	0.777 ± 0.1
[2], x1 = 0.2976	878.53 ± 2.5	873.84 ± 2.6	869.14 ± 2.7	–	–	–	1277 ± 88	0.91 ± 0.12	0.829 ± 0.11	0.768 ± 0.1
[2], x1 = 0.3973	900.47 ± 2.3	895.73 ± 2.4	890.99 ± 2.4	–	–	–	1290 ± 89	0.881 ± 0.11	0.813 ± 0.11	0.747 ± 0.099
[2], x1 = 0.5008	920.46 ± 2.1	915.68 ± 2.1	910.89 ± 2.2	–	–	–	1301 ± 89	0.882 ± 0.11	0.807 ± 0.11	0.749 ± 0.1
[2], x1 = 0.5968	936.53 ± 1.9	931.73 ± 2	926.92 ± 2.1	–	–	–	1314 ± 90	0.849 ± 0.11	0.784 ± 0.1	0.727 ± 0.097
[2], x1 = 0.7015	952.42 ± 1.8	947.62 ± 1.9	942.81 ± 1.9	–	–	–	1326 ± 91	0.894 ± 0.12	0.832 ± 0.11	0.774 ± 0.1
[2], x1 = 0.7935	964.6 ± 1.7	960.01 ± 1.8	955.42 ± 1.8	–	–	–	1340 ± 91	0.897 ± 0.12	0.83 ± 0.11	0.772 ± 0.1
[2], x1 = 0.9014	977.99 ± 1.6	973.42 ± 1.7	968.84 ± 1.7	–	–	–	1355 ± 92	0.923 ± 0.12	0.858 ± 0.11	0.792 ± 0.1
[2], x1 = 1	989.15 ± 1.6	984.45 ± 1.6	979.73 ± 1.7	–	–	–	1412 ± 95	0.988 ± 0.13	0.913 ± 0.12	0.854 ± 0.11

CCCCO [butan-1-ol]
Details	mass density, 298.15 K [kg/m3]	mass density, 303.15 K [kg/m3]	mass density, 308.15 K [kg/m3]	refractive index, 298.15 K	refractive index, 303.15 K	refractive index, 308.15 K	speed of sound, 298.15 K [m/s]	viscosity, 298.15 K [mPa·s]	viscosity, 303.15 K [mPa·s]	viscosity, 308.15 K [mPa·s]
[3]	–	–	–	1.3968 ± 0.005	1.3944 ± 0.005	1.3923 ± 0.005	–	–	–	–
[4]	806.12 ± 14	802.28 ± 14	798.41 ± 14	–	–	–	1246 ± 43	2.585 ± 0.3	2.284 ± 0.27	1.981 ± 0.24

CCCCO [butan-1-ol] + COc1ccccc1
x2 = 0
Details	mass density, 298.15 K [kg/m3]	mass density, 303.15 K [kg/m3]	mass density, 308.15 K [kg/m3]	refractive index, 298.15 K	refractive index, 303.15 K	refractive index, 308.15 K	speed of sound, 298.15 K [m/s]	viscosity, 298.15 K [mPa·s]	viscosity, 303.15 K [mPa·s]	viscosity, 308.15 K [mPa·s]
[1]	–	–	–	1.3968 ± 0.005	1.3944 ± 0.005	1.3923 ± 0.005	–	–	–	–
[2]	806.12 ± 14	802.28 ± 14	798.41 ± 14	–	–	–	1246 ± 43	2.585 ± 0.3	2.284 ± 0.27	1.981 ± 0.24

CCO [ethanol]
Details	mass density, 298.15 K [kg/m3]	mass density, 303.15 K [kg/m3]	mass density, 308.15 K [kg/m3]	refractive index, 298.15 K	refractive index, 303.15 K	refractive index, 308.15 K	speed of sound, 298.15 K [m/s]	viscosity, 298.15 K [mPa·s]	viscosity, 303.15 K [mPa·s]	viscosity, 308.15 K [mPa·s]
[3]	–	–	–	1.3591 ± 0.005	1.3572 ± 0.005	1.355 ± 0.005	–	–	–	–
[4]	785.91 ± 3.7	781.6 ± 3.7	777.26 ± 3.8	–	–	–	1161 ± 82	1.073 ± 0.14	0.971 ± 0.12	0.889 ± 0.12

CCO [ethanol] + COc1ccccc1
x2 = 0
Details	mass density, 298.15 K [kg/m3]	mass density, 303.15 K [kg/m3]	mass density, 308.15 K [kg/m3]	refractive index, 298.15 K	refractive index, 303.15 K	refractive index, 308.15 K	speed of sound, 298.15 K [m/s]	viscosity, 298.15 K [mPa·s]	viscosity, 303.15 K [mPa·s]	viscosity, 308.15 K [mPa·s]
[1]	–	–	–	1.3591 ± 0.005	1.3572 ± 0.005	1.355 ± 0.005	–	–	–	–
[2]	785.91 ± 3.7	781.6 ± 3.7	777.26 ± 3.8	–	–	–	1161 ± 82	1.073 ± 0.14	0.971 ± 0.12	0.889 ± 0.12

CCCCCO [pentan-1-ol]
Details	mass density, 298.15 K [kg/m3]	mass density, 303.15 K [kg/m3]	mass density, 308.15 K [kg/m3]	refractive index, 298.15 K	refractive index, 303.15 K	refractive index, 308.15 K	speed of sound, 298.15 K [m/s]	viscosity, 298.15 K [mPa·s]	viscosity, 303.15 K [mPa·s]	viscosity, 308.15 K [mPa·s]
[3]	–	–	–	1.4073 ± 0.005	1.405 ± 0.005	1.4032 ± 0.005	–	–	–	–
[4]	810.92 ± 3.5	807.23 ± 3.5	803.52 ± 3.6	–	–	–	1286 ± 44	3.403 ± 0.39	2.959 ± 0.34	2.581 ± 0.3

CCCCCO [pentan-1-ol] + COc1ccccc1
x2 = 0
Details	mass density, 298.15 K [kg/m3]	mass density, 303.15 K [kg/m3]	mass density, 308.15 K [kg/m3]	refractive index, 298.15 K	refractive index, 303.15 K	refractive index, 308.15 K	speed of sound, 298.15 K [m/s]	viscosity, 298.15 K [mPa·s]	viscosity, 303.15 K [mPa·s]	viscosity, 308.15 K [mPa·s]
[1]	–	–	–	1.4073 ± 0.005	1.405 ± 0.005	1.4032 ± 0.005	–	–	–	–
[2]	810.92 ± 3.5	807.23 ± 3.5	803.52 ± 3.6	–	–	–	1286 ± 44	3.403 ± 0.39	2.959 ± 0.34	2.581 ± 0.3

CCCO [propan-1-ol]
Details	mass density, 298.15 K [kg/m3]	mass density, 303.15 K [kg/m3]	mass density, 308.15 K [kg/m3]	refractive index, 298.15 K	refractive index, 303.15 K	refractive index, 308.15 K	speed of sound, 298.15 K [m/s]	viscosity, 298.15 K [mPa·s]	viscosity, 303.15 K [mPa·s]	viscosity, 308.15 K [mPa·s]
[3]	–	–	–	1.3826 ± 0.005	1.3808 ± 0.005	1.3782 ± 0.005	–	–	–	–
[4]	799.96 ± 3.5	795.93 ± 3.6	791.86 ± 3.6	–	–	–	1206 ± 42	1.792 ± 0.21	1.706 ± 0.2	1.518 ± 0.18

CCCO [propan-1-ol] + COc1ccccc1
x2 = 0
Details	mass density, 298.15 K [kg/m3]	mass density, 303.15 K [kg/m3]	mass density, 308.15 K [kg/m3]	refractive index, 298.15 K	refractive index, 303.15 K	refractive index, 308.15 K	speed of sound, 298.15 K [m/s]	viscosity, 298.15 K [mPa·s]	viscosity, 303.15 K [mPa·s]	viscosity, 308.15 K [mPa·s]
[1]	–	–	–	1.3826 ± 0.005	1.3808 ± 0.005	1.3782 ± 0.005	–	–	–	–
[2]	799.96 ± 3.5	795.93 ± 3.6	791.86 ± 3.6	–	–	–	1206 ± 42	1.792 ± 0.21	1.706 ± 0.2	1.518 ± 0.18

CC(C)O [propan-2-ol]
Details	mass density, 298.15 K [kg/m3]	mass density, 303.15 K [kg/m3]	mass density, 308.15 K [kg/m3]	refractive index, 298.15 K	refractive index, 303.15 K	refractive index, 308.15 K	speed of sound, 298.15 K [m/s]	viscosity, 298.15 K [mPa·s]	viscosity, 303.15 K [mPa·s]	viscosity, 308.15 K [mPa·s]
[3]	–	–	–	1.3745 ± 0.005	1.3721 ± 0.005	1.3702 ± 0.005	–	–	–	–
[4]	781.36 ± 3.8	777.09 ± 3.8	772.75 ± 3.9	–	–	–	1141 ± 41	2.042 ± 0.24	1.755 ± 0.21	1.521 ± 0.18

CC(C)O [propan-2-ol] + COc1ccccc1
x2 = 0
Details	mass density, 298.15 K [kg/m3]	mass density, 303.15 K [kg/m3]	mass density, 308.15 K [kg/m3]	refractive index, 298.15 K	refractive index, 303.15 K	refractive index, 308.15 K	speed of sound, 298.15 K [m/s]	viscosity, 298.15 K [mPa·s]	viscosity, 303.15 K [mPa·s]	viscosity, 308.15 K [mPa·s]
[1]	–	–	–	1.3745 ± 0.005	1.3721 ± 0.005	1.3702 ± 0.005	–	–	–	–
[2]	781.36 ± 3.8	777.09 ± 3.8	772.75 ± 3.9	–	–	–	1141 ± 41	2.042 ± 0.24	1.755 ± 0.21	1.521 ± 0.18
